# Experiments:
# Format in all cases: physicochemical
# [1] = Carbamazepine drug release test according to pH; conditions: regardless of pH
# Source text: In addition, a pattern released at a constant rate at all pHs was shown, and since the release rate of carbamazepine is higher at high pH, it may be inferred that the drug may be easily released from the lower digestive tract.
# [2] = Camptothecin adsorption to bentonite (supernatant concentration); conditions: camptothecin 0.25 mg/mL in 1 N HCl
# Procedure: The concentration of camptothecin (Tokyo Chemical Industry, TCI) was made at 0.25 mg/mL using a 100% 1 N HCl solvent and the drug and bentonite reacted with each other at various ratios shown in Table 6 below, and then the drug amount adsorbed to bentonite was indirectly measured by measuring the drug concentration of the supernatant.
# [3] = Ciprofloxacin release test using a dialysis membrane (FaSSGF, FaSSIF, FaSSCoF); conditions: complex weight ratio 1:5
# Source text: The release pattern according to the pH of the complex was confirmed through a release test using a dialysis membrane.
# [4] = Ciprofloxacin adsorption to bentonite (pH and concentration dependence)
smiles,measurement,setting,value
"NC(=O)N1c2ccccc2C=Cc2ccccc21 [Carbamazepine, 5H-dibenzo[b,f]azepine-5-carboxamide]",time within which most of the drug was released,[1],≤ 2 h
"CC[C@@]1(O)C(=O)OCc2c1cc1n(c2=O)Cc2cc3ccccc3nc2-1 [Camptothecin, (S)-4-ethyl-4-hydroxy-1H-pyrano-[3′,4′: 6,7]indolizinol[1,2-b]quinoline-3,14 (4H, 12H)-dione]",Supernatant concentration,[2],49.7 ± 0.3 µg/mL
"O=C(O)c1cn(C2CC2)c2cc(N3CCNCC3)c(F)cc2c1=O [ciprofloxacin, 1-cyclopropyl-6-fluoro-1,4-dihydro-4-oxo-7-(1-piperazinyl)-quinoline-3-carboxylic acid]","release pattern in FaSSGF, FaSSIF, FaSSCoF",[3],rapidly released under FaSSGF
same,amount of drug adsorption per bentonite mass,"[4]; bentonite 0.5 mg/mL, ciprofloxacin 50-500 μg/mL, pH 1",≤ 300 mg/g
same,adsorption amount of ciprofloxacin according to pH,"[4]; ciprofloxacin 0.5 mg/mL, bentonite 5 mg/mL, pH 1 to 10, decreased above pH 7",high adsorption
same,drug adsorption rate,[4]; weight ratio of ciprofloxacin and bentonite 1:5,~100%
